# Several values for one entry are separate records, joined by “and”; a condition that tells them apart may be missing. Identical values can stand only once.
# Test: Phase 1 Stage 1 clinical pharmacokinetics of SC ZA co-administered with rHuPH20
# Format: in vivo, human
# Design: key to Mean Conc. / Median Conc.: BLQ = blow limit for quantitation
# Details: serum; for Zoledronic Acid Concentration: individual subjects; for Mean Conc. / Median Conc.: n=3
# Method: A pharmacokinetic study of zoledronic acid (ZA) co-administered with rHuPH20 in human subjects was conducted. The primary objective of the study was to determine the bioavailability of zoledronic acid dosed via subcutaneous (SC) co-administration with human recombinant hyaluronidase PH20 (rHuPH20). […] The patients were administered the prescribed dosage formulations as follows: Cohorts 1-5 were administered a single subcutaneous infusion in a dosage volume of 100 ml at a rate of 3 mL/min. […] The dosing solution is administered via needle or catheter into the SC space of the left anterior thigh (midway between the anterior iliac crest and the cephalad border of the patella). For cohorts 1-5, the dosing solutions were administered by a controlled rate infusion pump at approximately 3 mL/minute. […] The dosing solutions were administered by syringe push bolus injection. […] Serum concentration of ZA was determined using a qualified LC-MS-MS assay after derivatization with diazomethane (Zhu, L S et al. (2006) Rapid Commun. […] The assay range was from 2.0 to 400 ng/mL with a lower limit of quantitation (LLOQ) at 2.0 ng/mL. […] Non-compartmental analysis was used for derivation of primary and secondary pharmacokinetic (PK) parameters. […] Summary statistics (mean, standard deviation, and median) were calculated using JMP or Microsoft Excel.
# [1] = ZA 0.5 mg SC infusion + 24000 Units rHuPH20, 24 h post infusion
# [2] = ZA 0.5 mg SC infusion + 24000 Units rHuPH20, 48 h post infusion
# [3] = ZA 1 mg SC infusion + 24000 Units rHuPH20, 48 h post infusion
smiles,measurement,setting,value
"O=P(O)(O)C(O)(Cn1ccnc1)P(=O)(O)O [ZA, 1-hydroxy-2-(1H-imidazol-1-yl)ethylidene-1,1-bisphosphonic acid]",Zoledronic Acid Concentration,"ZA 0.5 mg SC infusion + 24000 Units rHuPH20, 10 min post infusion, listed as Zoledronic Acid",16.80 ng/mL
same,Zoledronic Acid Concentration,"ZA 0.5 mg SC infusion + 24000 Units rHuPH20, 0.5 h post infusion, listed as Zoledronic Acid",16.50 ng/mL
same,Zoledronic Acid Concentration,"ZA 0.5 mg SC infusion + 24000 Units rHuPH20, 1 h post infusion, listed as Zoledronic Acid",15.00 ng/mL
same,Zoledronic Acid Concentration,[1],BLQ < (0.500) ng/mL
same,Mean Conc.,[1],BLQ
same,Median Conc.,[1],BLQ
same,Zoledronic Acid Concentration,[2],BLQ < (0.500) ng/mL
same,Mean Conc.,[2],BLQ
same,Median Conc.,[2],BLQ
same,Zoledronic Acid Concentration,"ZA 1 mg SC infusion + 24000 Units rHuPH20, 0 h post infusion, listed as Zoledronic Acid",15.30 ng/mL
same,Zoledronic Acid Concentration,"ZA 1 mg SC infusion + 24000 Units rHuPH20, 10 min post infusion, listed as Zoledronic Acid",25.00 ng/mL
same,Zoledronic Acid Concentration,"ZA 1 mg SC infusion + 24000 Units rHuPH20, 0.5 h post infusion, listed as Zoledronic Acid",23.00 ng/mL
same,Zoledronic Acid Concentration,"ZA 1 mg SC infusion + 24000 Units rHuPH20, 1 h post infusion, listed as Zoledronic Acid",19.40 ng/mL
same,Zoledronic Acid Concentration,"ZA 1 mg SC infusion + 24000 Units rHuPH20, 2 h post infusion, listed as Zoledronic Acid",17.00 ng/mL
same,Zoledronic Acid Concentration,"ZA 1 mg SC infusion + 24000 Units rHuPH20, 4 h post infusion, listed as Zoledronic Acid",10.20 ng/mL
same,Zoledronic Acid Concentration,"ZA 1 mg SC infusion + 24000 Units rHuPH20, 6 h post infusion, listed as Zoledronic Acid",5.47 ng/mL
same,Zoledronic Acid Concentration,"ZA 1 mg SC infusion + 24000 Units rHuPH20, 8 h post infusion, listed as Zoledronic Acid",3.17 ng/mL
same,Zoledronic Acid Concentration,"ZA 1 mg SC infusion + 24000 Units rHuPH20, 12 h post infusion, listed as Zoledronic Acid",1.30 ng/mL
same,Zoledronic Acid Concentration,"ZA 1 mg SC infusion + 24000 Units rHuPH20, 24 h post infusion, listed as Zoledronic Acid",0.51 ng/mL
same,Zoledronic Acid Concentration,[3],BLQ < (0.500) ng/mL
same,Mean Conc.,[3],BLQ
same,Median Conc.,[3],BLQ
same,Zoledronic Acid Concentration,"ZA 2 mg SC infusion + 24000 Units rHuPH20, 0 h post infusion, listed as Zoledronic Acid",39.60 ng/mL and 40.80 ng/mL
same,Zoledronic Acid Concentration,"ZA 2 mg SC infusion + 24000 Units rHuPH20, 10 min post infusion, listed as Zoledronic Acid",46.30 ng/mL and 46.00 ng/mL
same,Zoledronic Acid Concentration,"ZA 2 mg SC infusion + 24000 Units rHuPH20, 0.5 h post infusion, listed as Zoledronic Acid",47.30 ng/mL and 48.60 ng/mL
same,Zoledronic Acid Concentration,"ZA 2 mg SC infusion + 24000 Units rHuPH20, 1 h post infusion, listed as Zoledronic Acid",53.00 ng/mL and 58.70 ng/mL
same,Zoledronic Acid Concentration,"ZA 2 mg SC infusion + 24000 Units rHuPH20, 2 h post infusion, listed as Zoledronic Acid",40.10 ng/mL and 42.20 ng/mL
same,Zoledronic Acid Concentration,"ZA 2 mg SC infusion + 24000 Units rHuPH20, 4 h post infusion, listed as Zoledronic Acid",20.30 ng/mL and 23.00 ng/mL
same,Zoledronic Acid Concentration,"ZA 2 mg SC infusion + 24000 Units rHuPH20, 6 h post infusion, listed as Zoledronic Acid",7.71 ng/mL and 8.93 ng/mL
same,Zoledronic Acid Concentration,"ZA 2 mg SC infusion + 24000 Units rHuPH20, 8 h post infusion, listed as Zoledronic Acid",3.34 ng/mL and 4.81 ng/mL
same,Zoledronic Acid Concentration,"ZA 2 mg SC infusion + 24000 Units rHuPH20, 12 h post infusion, listed as Zoledronic Acid",1.64 ng/mL and 2.07 ng/mL
same,Zoledronic Acid Concentration,"ZA 2 mg SC infusion + 24000 Units rHuPH20, 24 h post infusion, listed as Zoledronic Acid",0.85 ng/mL and 0.98 ng/mL
same,Zoledronic Acid Concentration,"ZA 2 mg SC infusion + 24000 Units rHuPH20, 48 h post infusion, listed as Zoledronic Acid",BLQ < (0.500) ng/mL
same,Median Conc.,"ZA 2 mg SC infusion + 24000 Units rHuPH20, 48 h post infusion",BLQ
same,Zoledronic Acid Concentration,"ZA 5 mg SC infusion + 24000 Units rHuPH20, 0 h post infusion, listed as Zoledronic Acid",82.30 ng/mL and 53.50 ng/mL and 130.00 ng/mL
same,Zoledronic Acid Concentration,"ZA 5 mg SC infusion + 24000 Units rHuPH20, 10 min post infusion, listed as Zoledronic Acid",76.10 ng/mL and 132.00 ng/mL
same,Zoledronic Acid Concentration,"ZA 5 mg SC infusion + 24000 Units rHuPH20, 0.5 h post infusion, listed as Zoledronic Acid",112.00 ng/mL and 132.00 ng/mL
same,Zoledronic Acid Concentration,"ZA 5 mg SC infusion + 24000 Units rHuPH20, 1 h post infusion, listed as Zoledronic Acid",113.00 ng/mL and 116.00 ng/mL
same,Zoledronic Acid Concentration,"ZA 5 mg SC infusion + 24000 Units rHuPH20, 2 h post infusion, listed as Zoledronic Acid",89.80 ng/mL and 86.50 ng/mL
same,Zoledronic Acid Concentration,"ZA 5 mg SC infusion + 24000 Units rHuPH20, 4 h post infusion, listed as Zoledronic Acid",42.80 ng/mL and 61.70 ng/mL
same,Zoledronic Acid Concentration,"ZA 5 mg SC infusion + 24000 Units rHuPH20, 6 h post infusion, listed as Zoledronic Acid",22.30 ng/mL and 27.80 ng/mL
same,Zoledronic Acid Concentration,"ZA 5 mg SC infusion + 24000 Units rHuPH20, 8 h post infusion, listed as Zoledronic Acid",11.00 ng/mL and 12.50 ng/mL
same,Zoledronic Acid Concentration,"ZA 5 mg SC infusion + 24000 Units rHuPH20, 12 h post infusion, listed as Zoledronic Acid",4.61 ng/mL and 5.00 ng/mL
same,Zoledronic Acid Concentration,"ZA 5 mg SC infusion + 24000 Units rHuPH20, 24 h post infusion, listed as Zoledronic Acid",2.98 ng/mL and 2.23 ng/mL
same,Zoledronic Acid Concentration,"ZA 5 mg SC infusion + 24000 Units rHuPH20, 48 h post infusion, listed as Zoledronic Acid",1.63 ng/mL and 1.74 ng/mL

# From patent US20090311237A1, “Combination therapy using a soluble hyaluronidase and a bisphosphonate” (priority 2008, published 2009)
